This assay has as its target KDM1A (Homo sapiens, UniProt O60341). The assay can be described thus: HRP-coupled fluorometric demethylase assay with recombinant KDM1A (H2O2/HRP counter-screen); dialysis and dilution reversibility; cell thermal shift in MGC-803. It counts as biochemical.

The source of these data is PMC8084583, “Monobenzone, a Novel and Potent KDM1A Inhibitor, Suppresses Migration of Gastric Cancer Cells” (Frontiers in Pharmacology, 2021).

For the compound `Oc1ccc(OCc2ccccc2)cc1` [monobenzone], the concentration for half-maximal inhibition (IC50) came to 451 nM.
